In ChEMBL document CHEMBL1135326, “Structure-activity relationship studies of ethyl 2-[(3-methyl-2,5-dioxo(3-pyrrolinyl))amino]-4-(trifluoromethyl)pyrimidine-5-carboxylate: an inhibitor of AP-1 and NF-kappaB mediated gene expression” (Bioorg Med Chem Lett, 2002) one finds IC50 data, which are given here for 55 compounds.

For this assay, the system named is Jurkat. Nature of the assay: Inhibition of AP-1 and NF-kB-mediated transcriptional activation in Jurkat cells. It counts as functional, cell-based, Homo sapiens.

By IC50 is commonly meant the point on the concentration scale where inhibition reaches its midpoint. A higher IC50 goes with weaker potency in that assay. In turn, `CCOC(=O)c1cnc(NN2C(=O)C=C(C)C2=O)nc1-c1ccco1` displayed an IC50 (Homo sapiens, Jurkat) of 1000 nM.

Under “Homo sapiens, Jurkat”, `CCc1nc(NN2C(=O)C=C(C)C2=O)ncc1-c1cc(C)no1` registered an IC50 of 10000 nM.

In turn, `CC1=CC(=O)N(Nc2ncc(C(N)=O)c(C(F)(F)F)n2)C1=O` came in with an IC50 (Homo sapiens, Jurkat) of 30000 nM. For `CCOC(=O)c1cnc(NN2C(=O)C=C(C)C2=O)nc1-c1nccs1`, 2200 nM corresponded to half-maximal inhibition (Homo sapiens, Jurkat) (IC50). Same read-out and setting: with `CCOC(=O)c1cnc(N(C(=O)c2ccccc2)N2C(=O)C=C(C)C2=O)nc1C(F)(F)F` the figure was 830 nM; with `CCOC(=O)c1cnc(N(C)N2C(=O)C=C(C)C2=O)nc1-c1cc2ccccc2s1`, 130 nM; with `CCOC(=O)c1cnc(N(C)N2C(=O)C=C(C)C2=O)nc1C(F)(F)F`, 300 nM.

Under “Homo sapiens, Jurkat”, `CCOC(=O)c1cnc(NN2C(=O)C(C)=C(C)C2=O)nc1C(F)(F)F` displayed an IC50 of 3900 nM.

For the setting “Homo sapiens, Jurkat”, `CCCC(=O)c1cnc(NN2C(=O)C=C(C)C2=O)nc1CC` displayed an IC50 of 450 nM. For the setting “Homo sapiens, Jurkat”, `CCOC(=O)c1cnc(NN2C(=O)C=C(C)C2=O)nc1CC` yielded a half-maximal inhibitory concentration (IC50) of 400 nM.

With `CCc1nc(NN2C(=O)C=C(C)C2=O)ncc1-c1ncc(-c2ccccc2)o1`, the midpoint of inhibition (Homo sapiens, Jurkat), the IC50, lay at 2800 nM.

Take `CC1=CC(=O)N(Nc2ncc(C(=O)OC(C)(C)C)c(-c3cccs3)n2)C1=O`: for the setting “Homo sapiens, Jurkat”, the IC50 came out at 50 nM. Take `CCOC(=O)c1cnc(NN2C(=O)C=C(C)C2=O)nc1C(F)(F)F`: the IC50 (Homo sapiens, Jurkat) was determined as 2000 nM. On to `CCOC(=O)c1cnc(NN2C(=O)C=C(C)C2=O)nc1-c1cc2ccccc2s1`, for which the midpoint of inhibition (Homo sapiens, Jurkat), the IC50, lay at 800 nM. In the case of `CCOC(=O)c1cnc(N(C)N2C(=O)C=C(C)C2=O)nc1C(F)(F)C(F)(F)F`, the IC50 was determined as 350 nM (Homo sapiens, Jurkat) and 450 nM (jurkat). For `CC1=CC(=O)N(Nc2ncc(C(=O)O)c(C(F)(F)F)n2)C1=O`, for the setting “Homo sapiens, Jurkat”, the IC50 came out at 30000 nM.

Under “Homo sapiens, Jurkat”, `CC1=CC(=O)N(Nc2ncc(C(=O)OC(C)(C)C)c(C(F)(F)F)n2)C1=O` gave an IC50 of 210 nM. `CCOC(=O)c1cnc(N(C)N2C(=O)C=C(C)C2=O)nc1CC` returned an IC50 (Homo sapiens, Jurkat) of 35 nM. Compound `CCOC(=O)c1cnc(NN2C(=O)C=C(C)C2=O)nc1Cc1ccccc1` gave an IC50 (Homo sapiens, Jurkat) of 3800 nM. Compound `CC1=CC(=O)N(Nc2ncc(-c3nc(C)co3)c(-c3cccs3)n2)C1=O` came in with an IC50 (Homo sapiens, Jurkat) of 760 nM.

Take `CCOC(=O)c1cnc(N(C)N2C(=O)C=C(C)C2=O)nc1-c1ccc(C)s1`: the IC50 (Homo sapiens, Jurkat) came out at 350 nM. Compound `CC(=O)c1cnc(NN2C(=O)C=C(C)C2=O)nc1C(F)(F)F` came in with an IC50 (Homo sapiens, Jurkat) of 4400 nM. Compound `CCOC(=O)c1cnc(NN2C(=O)C=C(C)C2=O)nc1` had an IC50 (Homo sapiens, Jurkat) of 13000 nM.

The compound `CCOC(=O)c1cnc(N(C(=O)NC)N2C(=O)C=C(C)C2=O)nc1C(F)(F)F` had an IC50 (Homo sapiens, Jurkat) of 590 nM. Where the note is “Homo sapiens, Jurkat”, `CCc1nc(NN2C(=O)C=C(C)C2=O)ncc1-c1nnc(C)o1` registered an IC50 of 10000 nM. With `CCc1nc(NN2C(=O)C=C(C)C2=O)ncc1C(=O)c1ccccc1`, the IC50 (Homo sapiens, Jurkat) was determined as 650 nM. Take `CCOC(=O)c1cnc(N(C(=O)OCC)N2C(=O)C=C(C)C2=O)nc1C(F)(F)F`: the IC50 (Homo sapiens, Jurkat) amounted to 380 nM. Compound `CCOC(=O)c1cnc(NN2C(=O)CCC2=O)nc1C(F)(F)F` displayed an IC50 (Homo sapiens, Jurkat) of 1600 nM. For the setting “Homo sapiens, Jurkat”, `CCOC(=O)c1cnc(N(Cc2ccccc2)N2C(=O)C=C(C)C2=O)nc1C(F)(F)F` returned an IC50 of 450 nM. `CC1=CC(=O)N(Nc2ncc(C(=O)N(C)C)c(C(F)(F)F)n2)C1=O` had an IC50 (Homo sapiens, Jurkat) of 30000 nM. In the case of `CCOC(=O)c1cnc(N(C)N2C(=O)C=C(C)C2=O)nc1-c1ccsc1`, the IC50 (Homo sapiens, Jurkat) was determined as 120 nM. Turning to `CCOC(=O)c1cnc(NN2C(=O)C=C(C)C2=O)nc1-c1ccccc1`, under “Homo sapiens, Jurkat”, inhibition was half-maximal at 1200 nM (IC50). Consider `CCc1nc(NN2C(=O)C=C(C)C2=O)ncc1CO`, for which the IC50 (Homo sapiens, Jurkat) came to 4900 nM. Where the note is “Homo sapiens, Jurkat”, `CCOC(=O)c1cnc(NN2C(=O)C=C(C)C2=O)nc1-c1ccsc1` registered an IC50 of 200 nM. Consider `CCOC(=O)c1cnc(N(C)N2C(=O)C=C(C)C2=O)nc1-c1cccs1`, for which the IC50 (Homo sapiens, Jurkat) amounted to 94 nM. The compound `CCOC(=O)c1cnc(NN2C(=O)C=C(C)C2=O)nc1C` returned an IC50 (Homo sapiens, Jurkat) of 1900 nM.

On to `CCOC(=O)c1cnc(NN2C(=O)C=C(c3ccccc3)C2=O)nc1C(F)(F)F`, for which half-maximal inhibition (Homo sapiens, Jurkat) (IC50) was put at 3700 nM.

`CC1=CC(=O)N(Nc2ncc(C(=O)c3ccccc3)c(C(F)(F)F)n2)C1=O`: for the setting “Homo sapiens, Jurkat”, it took 98 nM to reach half-maximal inhibition (IC50). The compound `CCOC(=O)c1cnc(N(C)N2C(=O)C=C(C)C2=O)nc1-c1nccs1` displayed an IC50 (Homo sapiens, Jurkat) of 1700 nM. The compound `CCOC(=O)c1cnc(NN2C(=O)C=C(C)C2=O)nc1-c1ccc(Cl)s1` yielded an IC50 (Homo sapiens, Jurkat) of 520 nM. Compound `CCOC(=O)c1cnc(NN2C(=O)C=C(C)C2=O)nc1C(F)(F)C(F)(F)F` registered an IC50 (Homo sapiens, Jurkat) of 200 nM. As for `CCc1nc(NN2C(=O)C=C(C)C2=O)ncc1C(=O)OC1CC1`, the IC50 (Homo sapiens, Jurkat) was found to be 120 nM. Compound `CCc1nc(N(C)N2C(=O)C=C(C)C2=O)ncc1C(=O)c1ccccc1` came in with an IC50 (Homo sapiens, Jurkat) of 410 nM. On the same count and under the same terms, for `CC(=O)c1cnc(NN2C(=O)C=C(C)C2=O)nc1C` the value was 7700 nM; for `CCc1nc(N(C)N2C(=O)C=C(C)C2=O)ncc1COC`, 630 nM; for `CCOC(=O)c1cnc(N(C(C)=O)N2C(=O)C=C(C)C2=O)nc1C(F)(F)F`, 410 nM.

Where the note is “Homo sapiens, Jurkat”, `CCCc1nc(N(C(C)=O)N2C(=O)C=C(C)C2=O)ncc1C(=O)OCC` gave an IC50 of 430 nM. For `CCc1nc(NN2C(=O)C=C(C)C2=O)ncc1-c1nnn(C)n1`, under “Homo sapiens, Jurkat”, half-maximal inhibition (IC50) required 10000 nM. Compound `CCc1nc(NN2C(=O)C=C(C)C2=O)ncc1-c1nc(C)co1` had an IC50 (Homo sapiens, Jurkat) of 830 nM. In turn, `CCOC(=O)c1cnc(NN2C(=O)C=C(C)C2=O)nc1C1CC1` gave an IC50 (Homo sapiens, Jurkat) of 1500 nM.

As to `CCOC(=O)c1cnc(NN2C(=O)C=C(C)C2=O)nc1-c1cccs1`, the IC50 (Homo sapiens, Jurkat) turned out to be 140 nM. In turn, `CCOC(=O)c1cnc(NN2C(=O)C=C(C)C2=O)nc1COC` returned an IC50 (Homo sapiens, Jurkat) of 6000 nM. On the same count and under the same terms, with `CCOC(=O)c1cnc(NN2C(=O)C=C(C)C2=O)nc1-c1ccc(C)s1` the figure was 45 nM; with `CCOC(=O)c1cnc(N)nc1C(F)(F)F`, 30000 nM. On to `CCc1nc(NN2C(=O)C=C(C)C2=O)ncc1C#N`, for which the IC50 (Homo sapiens, Jurkat) was determined as 1100 nM.
